Data published in patent publication US20180055888A1, “COMPOSITIONS AND METHODS FOR ENHANCING THE THERAPEUTIC POTENTIAL OF STEM CELLS” (priority 2013, published 2018).

Experiments:
[1] = test system: mouse model for hind limb peripheral ischemia; assay: Macroscopic evaluation of ischemic severity (morphological grades for necrotic area), mouse hind limb ischemia model; type: in vivo, Mouse/Athymic Nude; conditions: Day 35, imputed data, group median, rank 1 best of 10 groups
Description: (§1) Disclosed herein is the testing of BM MSCs in a mouse model for hind limb peripheral ischemia. Peripheral artery disease (PAD) is a form of peripheral vascular diseases (PVD) in which there are partial or total blockage of blood supply to a limb, usually the leg, leading to impaired blood flow and hypoxia in the tissue. When PAD advances it reaches the stage of critical limb ischemia (CLI) with skin ulcerations, gangrene and unavoidable amputations. One of the most promising innovative treatments for diabetic vascular complications is stem cell-based products that enhance angiogenesis (TRefl-3) Hind limb ischemia animal models have been used to evaluate various therapeutic approaches addressing stem cell transplantation.
Under anesthesia, the mouse was placed with ventral side up. A 0.5-1.0 cm incision was made in the skin in the inguinal area. The femoral artery was ligated twice with 6-0 silk thread and transected between the ligatures. […]
(§2) Body weight was measured on study day −1 prior to the surgery and once weekly thereafter. Blood flow measurement: Blood flow in legs from both sides was measured with a non-contact Laser Doppier before surgery and on days: 1, 3, 7, 14, 21, 28 and 35 post operation. Blood flow measurements were expressed as the ratio of the flow in the ischemic limb to that in the normal limb (Goto et al. Tokai J Exp Clin Med., Vol. 31, No. 3, pp. 128-132, 2006). […]

[2] = test system: mouse model for hind limb peripheral ischemia; assay: Animal disposition (amputations, completion of 35 days follow-up), mouse hind limb ischemia model; type: in vivo; conditions: for Completed % (completed 35 days follow-up) / Imputed % (amputation after day 14, attributed to treatment failure): % of animals of the group; for Completed N (completed 35 days follow-up) / Imputed N (amputation after day 14, attributed to treatment failure): number of animals of the group
Description: A major problem in pre-clinical studies is often the high drop-out rate of animals due to treatment related failure (amputations after day 14 post surgery) or unrelated to treatment (e.g. death during anesthesia, or amputations before day 14 post surgery). Only a few animals had to be excluded from statistical analysis due to the latter reason.
as §1
Under anesthesia, the mouse was placed with ventral side up. A 0.5-1.0 cm incision was made in the skin in the inguinal area. The femoral artery was ligated twice with 6-0 silk thread and transected between the ligatures. The wound was closed with 4-0 silk thread and the mouse was allowed to recover.
On DAY 1, 24 hours post-surgery, each treated animal was injected intramuscular at two sites (the proximal and the distal side of the surgical wound) or intravenous into the tail vein. For intramuscular injection the animals were injected 50 μl at each site, total 100 μl per animal. For intravenous injection the animals were injected by 200 μl per animal.
(§3) In further analyses the imputation of missing data is done in the following way: Blood Flow (%): Value of the first measurement after the surgery (assumption is that treatment failed so that there is no improvement beyond what was observed immediately after surgery); Ischemic Severity Score: 4=“Total Hind-Limb Loss” (the worst score possible); Limb Function 3=“Dragging of foot” (the worst score possible); Weight (g): The animal's lowest weight at any of the points measured up to and including the day of amputation.

[3] = test system: mouse model for hind limb peripheral ischemia; assay: Blood flow measurement (non-contact Laser Doppler), mouse hind limb ischemia model; type: in vivo, Mouse/Athymic Nude; conditions: for Rank of treatment group, Blood Flow: Day 35, imputed data, group median, rank 1 best of 10 groups
Description: as §1
Animal handling was according to the National Institute of Health (NIH) and the Association for Assessment and Accreditation of Laboratory Animal Care (AAALAC). Animals were housed in polysufone (PSU) cages (7-8/cage) measuring […] cm, with stainless steel top grill having facilities for pelleted food and drinking water in glass-clear polycarbonate bottle; bedding: steam sterilized clean paddy husk (Harlan, Sani-chip, Cat#: 106S8216) was used and bedding material was changed along with the cage at least twice a week. Animals were fed ad libitum a commercial rodent diet (Teklad Certified Global 18% Protein Diet cat #: 106S8216). Animals have free access to autoclaved and acidified drinking water (pH between 2.5 and 3.5) obtained from the municipality supply. Animals were housed under standard laboratory conditions, air conditioned and filtered (HEPA F6/6) with adequate fresh air supply (Minimum 15 air changes/hour). Animals were kept in a climate controlled environment. Temperatures range was 20-24° C. and RH range was 30-70% with 12 hours light and 12 hours dark cycle. Species/Strain: Mouse/Athymic Nude; Gender/Number/Age: Male/152/9-10 weeks; Source: Harlan Laboratories, Israel; Body weight: The average body weight was 28.4 g at study initiation (day 1). The minimum and maximum weights of the group were within a range of ±20% of group mean weight; Acclimation period: 5-10 days; Identification: Three position ear notching and cage cards. […] Surgery Day was defined as “DAY 0” in this study. On the day of surgery anesthesia was induced by 1.5 to 3.0% isofiurane, 1.5% N2O and 0.5% O2. […]
as §2

[4] = test system: mouse model for hind limb peripheral ischemia; assay: In vivo assessment of limb function (graded scale), mouse hind limb ischemia model; set-up: species or system Mouse/Athymic Nude; conditions: Day 35, imputed data, group median, rank 1 best of 10 groups
Description: Disclosed herein is the testing of BM MSCs in a mouse model for hind limb peripheral ischemia. Peripheral artery disease (PAD) is a form of peripheral vascular diseases (PVD) in which there are partial or total blockage of blood supply to a limb, usually the leg, leading to impaired blood flow and hypoxia in the tissue. When PAD advances it reaches the stage of critical limb ischemia (CLI) with skin ulcerations, gangrene and unavoidable amputations. […]
In vivo assessment of limb function and Ischemic damage. Semi-quantitative assessment of impaired use of the ischemic limb was performed once a week post-surgery using the following scale (Stabile et al., Circulation. 2003; 15; 108{2):205-210). […]
In vivo assessment of limb function. Semi-quantitative assessment of impaired use of the ischemic limb was performed on days 7 up to 35 by using graded functional scales. […]
as §3

[5] = test system: mouse model for hind limb peripheral ischemia; assay: Ranking analysis / overall evaluation of all parameters, mouse hind limb ischemia model; type: in vivo, Mouse/Athymic Nude; conditions: for Factor 2: Difference between ranks of adjacent-ranked groups / Factor by which average rank differs from the top-ranked group (4) / Average Rank: Day 35, imputed data; for Average Rank: average over Blood Flow, Limb Function, Ischemic Severity Score
Description: Study end points were: Clinical score; Body weight measurements; Blood flow measurements Ranking analysis: Each group was given a ranking from 1 to 10 on each of the first 3 endpoints measured (% Blood Flow, Limb Function and Ischemic Severity Score). Rank=1 is highest and Rank=10 is lowest. When two groups are tied, both receive the same rank “in the middle”; e.g. if two groups were tied in Rank=4, both received the score 4.5 (twice of which is the sum of ranks 4 and 5). For each endpoint, the median was computed for each group (the median was used to ensure that extreme value will not affect results). On each endpoint, groups were sorted by median and each given its respective rank. The average rank was computed for each group over all endpoints
While paired comparisons were done, central results are presented in a way in that they are statistically relevant and can be clearly depicted in graphics. Data are consistent across endpoints and are consistent across different analysis. To obtain this picture we eliminated Weight from consideration. […] Each group was ranked on remaining 3 endpoints on day 35 and assessed Average Rank of groups—a measure combining results from all endpoints.
Evaluating all Parameters Concurrently at Day 35. Procedure: For each parameter (Blood Flow (%), Limb Function and Ischemic Severity Score) the median in the group across all animals was computed. All the groups based on their median from 1 to 10, where 1 is best, were ranked on each of the following parameters: Blood Flow {%)—highest is 1, lowest is 10; Limb Function—highest is 10, lowest is 1 (worst category is 3, best is 0); Ischemic Severity Score—highest is 10, lowest is 1 (worst category is 4, best is 0); Finally, for each group we computed the average rank over the three parameters.

`Cc1ccc2c(c1)C(=O)C1(O)CCN(c3ccccc3)C1=N2` (centres unmarked) [DMEM + BB, blebbistatin] was tested, and the “Rank of treatment group, Ischemic Severity Score” value ([1]; im) was 6, the “Rank of treatment group, Ischemic Severity Score” value ([1]; iv) was 6 and the “Completed % (completed 35 days follow-up)” value ([2]; im) was 82.4%. For the same molecule, the “Imputed % (amputation after day 14, attributed to treatment failure)” value ([2]; im) was 0%, the “Completed N (completed 35 days follow-up)” value ([2]; im) was 14 and the “Imputed N (amputation after day 14, attributed to treatment failure)” value ([2]; im) was 0. For the same molecule, the “Completed % (completed 35 days follow-up)” value ([2]; iv) was 93.3%, the “Imputed % (amputation after day 14, attributed to treatment failure)” value ([2]; iv) was 0% and the “Completed N (completed 35 days follow-up)” value ([2]; iv) was 14. The “Imputed N (amputation after day 14, attributed to treatment failure)” value ([2]; iv) was 0, the “regeneration of blood flow” value ([3]; blebbistatin alone, without cells, FIGS. 1A-B) was “no effect on the regeneration of blood flow” and the “Rank of treatment group, Blood Flow” value ([3]; im) was 6.5. For the same molecule, the “regeneration in blood flow over time” value ([3]; intramuscular, FIG. 1A) was “marginally recovery effects”, the “Rank of treatment group, Blood Flow” value ([3]; iv) was 6.5 and the “Rank of treatment group, Limb Function” value ([4]; im) was 5. The “Rank of treatment group, Limb Function” value ([4]; iv) was 5, the “overall efficacy in the model” value ([5]; conclusion over endpoints) was “no beneficial effect” and the “Factor 2: Difference between ranks of adjacent-ranked groups” value ([5]; im) was 0.8. For the same molecule, the “Factor by which average rank differs from the top-ranked group (4)” value ([5]; im) was 4.7, the “Average Rank” value ([5]; im) was 5.8 and the “Factor 2: Difference between ranks of adjacent-ranked groups” value ([5]; iv) was 0.0. For the same molecule, the “Factor by which average rank differs from the top-ranked group (4)” value ([5]; iv) was 4.7 and the “Average Rank” value ([5]; iv) was 5.8.
